Data from US20130123618A1, “Imaging Agents” (priority 2008, published 2013).

Assays:
[1] = test system: SKOV3 Human Ovarian carcinoma cells; assay: in vitro amino acid uptake in SKOV3 cells; format: cell-based
Description: (§1) Compounds have been evaluated in vitro for tumor binding specificity (i.e. uptake cells) using a variety of tumor cell lines available in the art, along with reference compounds such as Me-AlB and BCH. Detailed description of these assays can be found in Martarello et al. (2002) Journal of Medicinal Chemistry, 45:2250-2259 and McConathy et al. (2003) Nuclear Medicine and Biology, 30:477-490. These so called “amino acid uptake studies” are typically carried out with radiolabeled compounds in at least five phenotypically different human tumor cell lines (e.g., A549 lung carcinoma, MB468 breast carcinoma, DU145 prostate carcinoma-androgen independent, LnCap-androgen dependent, SKOV3 ovarian carcinoma, U87 glial blastoma, MIA PaCa-2 pancreas carcinoma, MDA MB231 breast carcinoma). These tumor cell lines can be grown either in vitro or in vivo with severe combined immunodeficiency (SCID) mice as a host. The afore-mentioned tumor cell lines are available at the Winship Cancer Institute of Emory University.
(§2) For the in vitro amino acid uptake studies, all cells can be grown to monolayer confluency in T-175 culture flasks [Corning, Corning, N.Y.] (approx. 1×10^8 cells/flask) in Dulbecco's Modified Eagle's Medium (DMEM) [Sigma, St. Louis, Mo.] in a humidified incubator (37° C., 5% CO2/95% air). […]
(§3) In the in vitro studies the uptake rate of each amino acid compound is measured in each tumor line, as well as the dominant transport mechanisms of each tumor cell line. After trypsinization, cells are resuspended in serum-free media, then counted on a hemocytometer, with viability assessed through Trypan blue staining. […] The vials are placed in a Cobra-II gamma counter (Packard, Meriden, Conn.), with the activity per cell number determined. […] Saline washes are performed as described above, and the filtered cells' radioactivity determined on the gamma counter. […]
(§4) The uptake of all compounds were measured in human and rat cancer cell lines and the dominant transport (“A” and “L”) mechanism of each culture were determined. […]

[2] = test system: U87 Human Glioma cells; assay: in vitro amino acid uptake in U87 cells; format: cell-based
Description: as §1, §2, §3, §4

[3] = test system: DU145, human prostate cancer cells implanted in flanks; assay: tissue distribution in SCID mice bearing DU145 tumors; format: in vivo; settings: for tissue distribution, blood / tissue distribution, bone / tissue distribution, brain / tissue distribution, heart / tissue distribution, kidney / tissue distribution, liver / tissue distribution, lung / tissue distribution, muscle / tissue distribution, pancreas / tissue distribution, spleen / tissue distribution, tumor: DU145 tumor-bearing SCID mice, tail vein, ave
Method: For the in vitro amino acid uptake studies, all cells can be grown to monolayer confluency in T-175 culture flasks [Corning, Corning, N.Y.] (approx. 1×10^8 cells/flask) in Dulbecco's Modified Eagle's Medium (DMEM) [Sigma, St. Louis, Mo.] in a humidified incubator (37° C., 5% CO2/95% air). Media are supplemented with 10% fetal calf serum [Hyclone, Logan, Utah], and antibiotics (10,000 U/ml penicillin and 10 mg/ml streptomycin) (Sigma, St. Louis, Mo.). For tissue culture passage, monolayer cells are detached by gentle trypsinization, resuspended in complete media, and split 1:10 into new T-flasks. Cultures are passaged weekly, and fed fresh media every 2 to 3 days. To initiate tumor growth in SCID mice, 1×10^6 cells are injected s.c. bilaterally into the flanks (inguinal region) of the recipient animals using a 1 ml syringe with a 27 gauge needle. Ex vivo experiments can be performed with animals containing tumors weighing between 500 mg and 1 g, as estimated by caliper measurement (tumor weight=(π/6)*abc, where a, b and c are the tumor length, width and height, respectively).
Tissue distribution of the compounds is measured in SCID mice (average weight, 20-25 g) bearing human tumors as follows. The candidate radioligands (20 uCi in 0.4 ml 0.9% NaCl) are injected into the tail vein of tumor-bearing mice. […] Tissues (blood, heart, liver, lungs, kidneys, bone, thyroid, muscle, brain and tumor) are excised, rinsed in saline, and blotted dry. The tissues are weighed, placed into 12×75 mm glass vials, the radioactivity determined with a gamma counter, and the percent dose/gram calculated. Total activities of blood and muscle are calculated by assuming that they account for 7% and 40% of the total body mass, respectively.
Tables 3-7 show the results of the biodistribution studies with the separate enantiomers of anti-2-[^18F]FACPC and racemic anti-2-[^18F]FACBC as a comparison in SCiD mice implanted in their flanks with A549, human lung cancer cells and DU145, human prostate cancer cells.

[4] = test system: A549 Human Lung adenocarcinoma cells; assay: in vitro amino acid uptake in A549 cells; format: cell-based
Description: as §1, §2, §3, §4

NC1(C(=O)O)CCC1[18F] (racemic) [racemic anti-2-[^18F]FACBC]
% Dose uptake per 0.5 × 10−6 Cells [1]: 2.2 % Dose/0.5 × 10^−6
% Dose uptake per 0.5 × 10−6 Cells [2]: 8.3 % Dose/0.5 × 10^−6
tissue distribution, blood ([3]; 15 min): 2.80 percent dose/gram
tissue distribution, bone ([3]; 15 min): 1.06 percent dose/gram
tissue distribution, brain ([3]; 15 min): 0.17 percent dose/gram
tissue distribution, heart ([3]; 15 min): 2.07 percent dose/gram
tissue distribution, kidney ([3]; 15 min): 6.82 percent dose/gram
tissue distribution, liver ([3]; 15 min): 2.32 percent dose/gram
tissue distribution, lung ([3]; 15 min): 3.35 percent dose/gram
tissue distribution, muscle ([3]; 15 min): 0.83 percent dose/gram
tissue distribution, pancreas ([3]; 15 min): 29.02 percent dose/gram
tissue distribution, spleen ([3]; 15 min): 4.38 percent dose/gram
tissue distribution, tumor ([3]; 15 min): 2.95 percent dose/gram
tissue distribution, blood ([3]; 30 min): 1.86 percent dose/gram
tissue distribution, bone ([3]; 30 min): 1.63 percent dose/gram
tissue distribution, brain ([3]; 30 min): 0.16 percent dose/gram
tissue distribution, heart ([3]; 30 min): 1.82 percent dose/gram
tissue distribution, kidney ([3]; 30 min): 4.47 percent dose/gram
tissue distribution, liver ([3]; 30 min): 2.09 percent dose/gram
tissue distribution, lung ([3]; 30 min): 2.32 percent dose/gram
tissue distribution, muscle ([3]; 30 min): 1.00 percent dose/gram
tissue distribution, pancreas ([3]; 30 min): 29.29 percent dose/gram
tissue distribution, spleen ([3]; 30 min): 4.74 percent dose/gram
tissue distribution, tumor ([3]; 30 min): 3.54 percent dose/gram
tissue distribution, blood ([3]; 60 min): 0.80 percent dose/gram
tissue distribution, bone ([3]; 60 min): 2.22 percent dose/gram
tissue distribution, brain ([3]; 60 min): 0.18 percent dose/gram
tissue distribution, heart ([3]; 60 min): 1.32 percent dose/gram
tissue distribution, kidney ([3]; 60 min): 1.82 percent dose/gram
tissue distribution, liver ([3]; 60 min): 1.23 percent dose/gram
tissue distribution, lung ([3]; 60 min): 1.18 percent dose/gram
tissue distribution, muscle ([3]; 60 min): 1.15 percent dose/gram
tissue distribution, pancreas ([3]; 60 min): 15.01 percent dose/gram
tissue distribution, spleen ([3]; 60 min): 2.85 percent dose/gram
tissue distribution, tumor ([3]; 60 min): 2.57 percent dose/gram
tissue distribution, blood ([3]; 120 min): 0.39 percent dose/gram
tissue distribution, bone ([3]; 120 min): 0.66 percent dose/gram
tissue distribution, brain ([3]; 120 min): 0.13 percent dose/gram
tissue distribution, heart ([3]; 120 min): 0.82 percent dose/gram
tissue distribution, kidney ([3]; 120 min): 0.78 percent dose/gram
tissue distribution, liver ([3]; 120 min): 0.43 percent dose/gram
tissue distribution, lung ([3]; 120 min): 0.46 percent dose/gram
tissue distribution, muscle ([3]; 120 min): 0.72 percent dose/gram
tissue distribution, pancreas ([3]; 120 min): 5.92 percent dose/gram
tissue distribution, spleen ([3]; 120 min): 0.87 percent dose/gram
tissue distribution, tumor ([3]; 120 min): 1.85 percent dose/gram
uptake of radioactivity in the tumors compared with muscle ([3]; DU145 tumors, SCID mice, time points sampled post injection): greater than muscle
% Dose uptake per 0.5 × 10−6 Cells [4]: 8.9 % Dose/0.5 × 10^−6

N[C@]1(C(=O)O)CCC[C@@H]1[18F] (single isomer, unassigned; enantiomer 1) [Enantiomer 1, anti-2-[^18F]FACPC]
% Dose uptake per 0.5 × 10−6 Cells [1]: 7 % Dose/0.5 × 10^−6
% Dose uptake per 0.5 × 10−6 Cells [2]: 28 % Dose/0.5 × 10^−6
in vivo uptake compared with racemic 2-[^18F]FACBC ([3]; DU 145 cells implanted subcutaneously in flanks of SCID mice): significantly higher in vivo uptake than racemic 2-[^18F]FACBC
tissue distribution, blood ([3]; 15 min): 3.69 percent dose/gram
tissue distribution, bone ([3]; 15 min): 2.89 percent dose/gram
tissue distribution, brain ([3]; 15 min): 0.70 percent dose/gram
tissue distribution, heart ([3]; 15 min): 3.76 percent dose/gram
tissue distribution, kidney ([3]; 15 min): 8.83 percent dose/gram
tissue distribution, liver ([3]; 15 min): 4.34 percent dose/gram
tissue distribution, lung ([3]; 15 min): 4.38 percent dose/gram
tissue distribution, muscle ([3]; 15 min): 2.23 percent dose/gram
tissue distribution, pancreas ([3]; 15 min): 47 percent dose/gram
tissue distribution, spleen ([3]; 15 min): 7.4 percent dose/gram
tissue distribution, tumor ([3]; 15 min): 3.82 percent dose/gram
tissue distribution, blood ([3]; 30 min): 2.44 percent dose/gram
tissue distribution, bone ([3]; 30 min): 3.06 percent dose/gram
tissue distribution, brain ([3]; 30 min): 0.49 percent dose/gram
tissue distribution, heart ([3]; 30 min): 2.71 percent dose/gram
tissue distribution, kidney ([3]; 30 min): 5.36 percent dose/gram
tissue distribution, liver ([3]; 30 min): 2.74 percent dose/gram
tissue distribution, lung ([3]; 30 min): 2.78 percent dose/gram
tissue distribution, muscle ([3]; 30 min): 2.31 percent dose/gram
tissue distribution, pancreas ([3]; 30 min): 28 percent dose/gram
tissue distribution, spleen ([3]; 30 min): 6.70 percent dose/gram
tissue distribution, tumor ([3]; 30 min): 3.54 percent dose/gram
tissue distribution, blood ([3]; 60 min): 1.7 percent dose/gram
tissue distribution, bone ([3]; 60 min): 2.58 percent dose/gram
tissue distribution, brain ([3]; 60 min): 0.62 percent dose/gram
tissue distribution, heart ([3]; 60 min): 2.2 percent dose/gram
tissue distribution, kidney ([3]; 60 min): 4.07 percent dose/gram
tissue distribution, liver ([3]; 60 min): 1.96 percent dose/gram
tissue distribution, lung ([3]; 60 min): 1.91 percent dose/gram
tissue distribution, muscle ([3]; 60 min): 2.15 percent dose/gram
tissue distribution, pancreas ([3]; 60 min): 22 percent dose/gram
tissue distribution, spleen ([3]; 60 min): 2.79 percent dose/gram
tissue distribution, tumor ([3]; 60 min): 3.07 percent dose/gram
% Dose uptake per 0.5 × 10−6 Cells [4]: 13 % Dose/0.5 × 10^−6
